{"source": "patent US20240210412A1", "about": "“SULFONYL-TRIAZOLE COMPOUNDS USEFUL AS LIGANDS AND INHIBITORS OF PROSTAGLANDIN REDUCTASE 2” (University of Virginia Patent Foundation, priority 2021, published 2024)", "assay_in_all_cases": "SILAC LC-MS ABPP", "assay_type_in_all_cases": "cell-based", "conditions_in_all_cases": "25 μM 2 h, live DM93 cells", "key": {"Q9BUT1": {"biological_target": "T1, Q9BUT1 (Homo sapiens, UniProt Q9BUT1)", "T1 construct": "endogenous in cells; host or cells: DM93 cells (SILAC), treated live; soluble proteome analysed", "T1 sequence (Q9BUT1 whole entry)": "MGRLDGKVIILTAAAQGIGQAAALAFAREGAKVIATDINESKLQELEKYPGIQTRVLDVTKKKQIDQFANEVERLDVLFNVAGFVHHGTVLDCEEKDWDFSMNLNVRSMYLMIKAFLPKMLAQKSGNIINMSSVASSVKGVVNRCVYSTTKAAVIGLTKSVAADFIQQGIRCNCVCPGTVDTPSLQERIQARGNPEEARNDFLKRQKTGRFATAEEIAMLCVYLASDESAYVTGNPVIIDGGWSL", "in_short": "(§1)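 Chemical proteomics in DM93 melanoma, light/heavy SILAC pairs. Vehicle versus 25 μM covalent sulfonyl-triazole for 2 h (37 °C) in serum-free medium was followed by 100 μM HHS-475 labelling for 2 h; tyrosine sites were identified and quantified by LC-MS/MS of avidin-enriched tryptic peptides.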"}, "P04040": {"biological_target": "T2, P04040 (Homo sapiens, UniProt P04040)", "T2 construct": "endogenous in cells; host or cells: DM93 cells (SILAC)", "in_short": "as §1"}, "Q9BXS6": {"biological_target": "T3, Q9BXS6 (Homo sapiens, UniProt Q9BXS6)", "T3 construct": "endogenous in cells; host or cells: DM93 cells (SILAC), treated live; soluble proteome analysed", "T3 sequence (Q9BXS6 whole entry)": "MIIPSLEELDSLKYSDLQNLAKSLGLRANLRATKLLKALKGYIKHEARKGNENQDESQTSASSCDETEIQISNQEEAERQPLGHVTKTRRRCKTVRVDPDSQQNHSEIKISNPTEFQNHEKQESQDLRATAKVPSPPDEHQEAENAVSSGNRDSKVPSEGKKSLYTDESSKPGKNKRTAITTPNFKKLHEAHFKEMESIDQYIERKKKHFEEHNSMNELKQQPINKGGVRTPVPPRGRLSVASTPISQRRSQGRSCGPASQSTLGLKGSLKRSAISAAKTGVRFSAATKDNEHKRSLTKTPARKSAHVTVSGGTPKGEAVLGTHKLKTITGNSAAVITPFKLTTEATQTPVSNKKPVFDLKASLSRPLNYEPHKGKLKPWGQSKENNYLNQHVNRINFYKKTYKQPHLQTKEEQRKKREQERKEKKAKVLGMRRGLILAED", "in_short": "as §1"}, "Q9Y2S7": {"biological_target": "T4, Q9Y2S7 (Homo sapiens, UniProt Q9Y2S7)", "T4 construct": "endogenous in cells; host or cells: DM93 cells (SILAC)", "T4 sequence (Q9Y2S7 52-368)": "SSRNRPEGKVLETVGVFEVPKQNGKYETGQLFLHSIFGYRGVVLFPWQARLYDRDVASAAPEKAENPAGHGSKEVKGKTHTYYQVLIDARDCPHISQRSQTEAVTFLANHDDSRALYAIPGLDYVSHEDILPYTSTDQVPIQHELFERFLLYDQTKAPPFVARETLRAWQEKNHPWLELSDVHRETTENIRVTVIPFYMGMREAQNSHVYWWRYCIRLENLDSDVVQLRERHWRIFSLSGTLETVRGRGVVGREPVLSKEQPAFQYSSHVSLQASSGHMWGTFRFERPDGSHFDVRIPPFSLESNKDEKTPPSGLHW", "in_short": "as §1"}, "P51784": {"biological_target": "T5, P51784 (Homo sapiens, UniProt P51784)", "T5 construct": "endogenous in cells; host or cells: DM93 cells (SILAC)", "in_short": "as §1"}, "P23588": {"biological_target": "T6, P23588 (Homo sapiens, UniProt P23588)", "T6 construct": "Probe-modified proteins from the soluble fraction were conjugated to a desthiobiotin-azide tag; endogenous in cells; host or cells: DM93 (SILAC)", "in_short": "as §1"}, "Q9C0C2": {"biological_target": "T7, Q9C0C2 (Homo sapiens, UniProt Q9C0C2)", "T7 construct": "endogenous in cells; host or cells: DM93 cells (SILAC), treated live; soluble proteome analysed", "in_short": "as §1"}, "P42704": {"biological_target": "T8, P42704 (Homo sapiens, UniProt P42704)", "T8 construct": "endogenous in cells; host or cells: DM93 cells (SILAC)", "in_short": "as §1"}, "Q00341": {"biological_target": "T9, Q00341 (Homo sapiens, UniProt Q00341)", "T9 construct": "performing SuTEx compound screening directly in cells; endogenous in cells; host or cells: DM93 cells (SILAC)", "T9 sequence (Q00341 whole entry)": "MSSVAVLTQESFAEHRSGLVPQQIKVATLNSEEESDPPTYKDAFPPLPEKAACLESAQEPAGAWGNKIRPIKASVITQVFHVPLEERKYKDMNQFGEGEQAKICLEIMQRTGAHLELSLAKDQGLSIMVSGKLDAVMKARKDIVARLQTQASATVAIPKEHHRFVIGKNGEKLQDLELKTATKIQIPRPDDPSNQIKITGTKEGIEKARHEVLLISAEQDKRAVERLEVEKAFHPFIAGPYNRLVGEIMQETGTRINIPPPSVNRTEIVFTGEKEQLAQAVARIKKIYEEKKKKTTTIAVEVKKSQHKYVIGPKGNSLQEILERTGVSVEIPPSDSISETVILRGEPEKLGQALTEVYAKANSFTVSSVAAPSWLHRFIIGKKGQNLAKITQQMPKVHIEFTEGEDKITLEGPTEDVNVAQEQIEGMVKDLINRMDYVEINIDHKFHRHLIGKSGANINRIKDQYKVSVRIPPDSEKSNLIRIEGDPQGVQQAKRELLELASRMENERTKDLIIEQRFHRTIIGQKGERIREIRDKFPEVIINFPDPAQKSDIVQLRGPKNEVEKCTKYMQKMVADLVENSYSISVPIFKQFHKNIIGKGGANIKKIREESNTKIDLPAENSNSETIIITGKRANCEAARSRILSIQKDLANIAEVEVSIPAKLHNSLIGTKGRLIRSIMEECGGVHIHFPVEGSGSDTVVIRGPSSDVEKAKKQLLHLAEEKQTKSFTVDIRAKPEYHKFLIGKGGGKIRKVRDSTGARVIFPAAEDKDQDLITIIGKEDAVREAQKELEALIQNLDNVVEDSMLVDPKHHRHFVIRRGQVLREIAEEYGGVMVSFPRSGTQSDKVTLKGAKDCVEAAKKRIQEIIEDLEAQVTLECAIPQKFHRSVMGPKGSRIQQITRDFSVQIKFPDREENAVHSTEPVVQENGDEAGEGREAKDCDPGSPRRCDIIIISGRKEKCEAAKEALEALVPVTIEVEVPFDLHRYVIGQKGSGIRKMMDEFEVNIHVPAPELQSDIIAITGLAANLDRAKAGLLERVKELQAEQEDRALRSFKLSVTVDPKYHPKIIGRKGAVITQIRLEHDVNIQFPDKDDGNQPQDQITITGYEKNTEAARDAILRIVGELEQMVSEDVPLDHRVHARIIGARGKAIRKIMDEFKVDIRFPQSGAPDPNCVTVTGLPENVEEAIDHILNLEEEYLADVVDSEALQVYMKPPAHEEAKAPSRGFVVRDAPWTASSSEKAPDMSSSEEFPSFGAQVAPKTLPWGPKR", "in_short": "as §1"}, "Q86XP3": {"biological_target": "T10, Q86XP3 (Homo sapiens, UniProt Q86XP3)", "T10 construct": "endogenous in cells; host or cells: DM93 cells (SILAC), live-cell treatment", "in_short": "as §1"}, "O43660": {"biological_target": "T11, O43660 (Homo sapiens, UniProt O43660)", "T11 construct": "endogenous in cells; host or cells: DM93", "in_short": "as §1"}, "Q9NUJ1": {"biological_target": "T12, Q9NUJ1 (Homo sapiens, UniProt Q9NUJ1)", "T12 construct": "endogenous in cells; host or cells: DM93 cells (SILAC), treated live; soluble proteome analysed", "T12 sequence (Q9NUJ1 53-306)": "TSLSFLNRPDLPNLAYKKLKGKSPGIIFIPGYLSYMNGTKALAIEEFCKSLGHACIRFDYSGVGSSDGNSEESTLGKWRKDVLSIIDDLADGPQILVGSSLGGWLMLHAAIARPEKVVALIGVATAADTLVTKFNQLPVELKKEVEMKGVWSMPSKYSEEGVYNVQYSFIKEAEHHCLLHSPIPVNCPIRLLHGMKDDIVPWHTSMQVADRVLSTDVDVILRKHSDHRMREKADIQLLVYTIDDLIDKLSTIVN", "in_short": "as §1"}, "Q14694": {"biological_target": "T13, Q14694 (Homo sapiens, UniProt Q14694)", "T13 construct": "performing SuTEx compound screening directly in cells; endogenous in cells; host or cells: DM93 cells (SILAC), soluble fraction", "T13 sequence (Q14694 whole entry)": "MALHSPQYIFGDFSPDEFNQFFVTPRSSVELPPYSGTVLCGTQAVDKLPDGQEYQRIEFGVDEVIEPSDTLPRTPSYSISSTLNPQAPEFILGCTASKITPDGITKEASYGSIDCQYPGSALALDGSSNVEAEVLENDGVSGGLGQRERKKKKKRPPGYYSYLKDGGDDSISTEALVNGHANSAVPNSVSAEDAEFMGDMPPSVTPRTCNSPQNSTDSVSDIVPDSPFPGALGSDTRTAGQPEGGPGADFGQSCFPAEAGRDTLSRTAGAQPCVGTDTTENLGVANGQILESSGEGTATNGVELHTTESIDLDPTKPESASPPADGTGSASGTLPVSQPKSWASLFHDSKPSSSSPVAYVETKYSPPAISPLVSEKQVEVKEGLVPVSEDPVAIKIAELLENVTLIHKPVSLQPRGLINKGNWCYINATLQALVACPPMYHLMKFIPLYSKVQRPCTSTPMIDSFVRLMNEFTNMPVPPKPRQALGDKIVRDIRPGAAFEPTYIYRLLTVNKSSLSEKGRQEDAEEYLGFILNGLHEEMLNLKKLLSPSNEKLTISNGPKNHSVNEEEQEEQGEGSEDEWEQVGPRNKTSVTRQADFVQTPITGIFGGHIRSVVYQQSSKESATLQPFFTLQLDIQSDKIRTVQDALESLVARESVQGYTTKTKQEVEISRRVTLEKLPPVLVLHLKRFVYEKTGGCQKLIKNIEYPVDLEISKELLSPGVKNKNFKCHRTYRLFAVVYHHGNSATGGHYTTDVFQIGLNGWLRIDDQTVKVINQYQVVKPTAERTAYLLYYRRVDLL", "in_short": "as §1"}, "Q9Y2H2": {"biological_target": "T14, Q9Y2H2 (Homo sapiens, UniProt Q9Y2H2)", "T14 construct": "endogenous in cells; host or cells: DM93 cells (SILAC)", "in_short": "as §1"}, "Q9UMX5": {"biological_target": "T15, Q9UMX5 (Homo sapiens, UniProt Q9UMX5)", "T15 construct": "endogenous in cells; host or cells: DM93 cells (SILAC)", "T15 sequence (Q9UMX5 32-172)": "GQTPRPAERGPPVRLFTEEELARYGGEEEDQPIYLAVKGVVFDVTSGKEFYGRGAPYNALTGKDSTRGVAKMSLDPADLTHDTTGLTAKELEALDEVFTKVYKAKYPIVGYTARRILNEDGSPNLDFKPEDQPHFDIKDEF", "in_short": "as §1"}, "P40939": {"biological_target": "T16, P40939 (Homo sapiens, UniProt P40939)", "T16 construct": "endogenous in cells; host or cells: DM93 cells (SILAC)", "T16 sequence (P40939 37-763)": "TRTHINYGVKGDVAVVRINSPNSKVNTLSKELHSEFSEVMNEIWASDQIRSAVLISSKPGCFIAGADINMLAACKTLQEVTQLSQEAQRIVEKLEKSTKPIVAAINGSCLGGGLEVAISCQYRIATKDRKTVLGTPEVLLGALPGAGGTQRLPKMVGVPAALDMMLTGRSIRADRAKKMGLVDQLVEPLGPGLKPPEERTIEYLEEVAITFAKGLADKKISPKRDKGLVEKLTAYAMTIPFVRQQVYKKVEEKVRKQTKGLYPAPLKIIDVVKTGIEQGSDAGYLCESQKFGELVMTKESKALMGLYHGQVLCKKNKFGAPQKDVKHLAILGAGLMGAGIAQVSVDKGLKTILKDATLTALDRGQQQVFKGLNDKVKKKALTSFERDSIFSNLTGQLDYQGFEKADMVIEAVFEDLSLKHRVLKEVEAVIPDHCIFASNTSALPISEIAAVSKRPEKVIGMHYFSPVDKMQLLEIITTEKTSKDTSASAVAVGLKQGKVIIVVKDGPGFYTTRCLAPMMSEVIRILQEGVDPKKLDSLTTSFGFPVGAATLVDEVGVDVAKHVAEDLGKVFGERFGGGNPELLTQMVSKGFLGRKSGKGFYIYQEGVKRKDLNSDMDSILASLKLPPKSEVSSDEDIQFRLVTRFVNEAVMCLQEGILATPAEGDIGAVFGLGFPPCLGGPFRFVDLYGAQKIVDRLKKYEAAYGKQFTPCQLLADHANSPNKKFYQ", "T16 sequence (P55084 34-474 partner)": "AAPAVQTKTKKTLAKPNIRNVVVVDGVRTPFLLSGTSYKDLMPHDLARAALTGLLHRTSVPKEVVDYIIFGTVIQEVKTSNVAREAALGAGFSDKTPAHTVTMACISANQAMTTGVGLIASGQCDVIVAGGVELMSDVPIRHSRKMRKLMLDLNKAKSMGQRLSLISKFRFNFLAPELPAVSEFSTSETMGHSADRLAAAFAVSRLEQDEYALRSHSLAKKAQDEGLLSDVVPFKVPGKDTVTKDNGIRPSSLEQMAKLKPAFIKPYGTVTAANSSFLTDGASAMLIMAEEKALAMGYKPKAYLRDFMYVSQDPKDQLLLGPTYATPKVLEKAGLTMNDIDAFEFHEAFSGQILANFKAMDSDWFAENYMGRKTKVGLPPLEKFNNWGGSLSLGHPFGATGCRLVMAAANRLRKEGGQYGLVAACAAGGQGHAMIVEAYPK", "in_short": "as §1"}, "P51665": {"biological_target": "T17, P51665 (Homo sapiens, UniProt P51665)", "T17 construct": "endogenous in cells; host or cells: DM93 cells (SILAC)", "in_short": "as §1"}, "Q12931": {"biological_target": "T18, Q12931 (Homo sapiens, UniProt Q12931)", "T18 construct": "performing SuTEx compound screening directly in cells; endogenous in cells; host or cells: DM93 cells (SILAC)", "in_short": "as §1"}}}
{"smiles": "O=C(NC1CC1)c1ccc(S(=O)(=O)n2cncn2)cc1", "note": "[HHS-0101, 4-((1H-1,2,4-triazol-1-yl)sulfonyl)-N-cyclopropylbenzamide]", "values": [{"measurement": "liganded tyrosine site 49", "setting": "Q9BUT1", "result": "HHS0101.Y (tyrosine sites that showed >80% reductions (SR >5) in probe labeling in cells treated with compounds (liganded sites))"}, {"measurement": "liganded tyrosine site 358", "setting": "P04040", "result": "HHS0101.Y|HHS0201.Y|HHS0301.Y|HHS0701.Y (tyrosine sites that showed >80% reductions (SR >5) in probe labeling in cells treated with compounds (liganded sites))"}, {"measurement": "liganded tyrosine site 165", "setting": "Q9BXS6", "result": "HHS0101.Y (tyrosine sites that showed >80% reductions (SR >5) in probe labeling in cells treated with compounds (liganded sites))"}, {"measurement": "liganded tyrosine site 168", "setting": "Q9Y2S7", "result": "HHS0101.Y (tyrosine sites that showed >80% reductions (SR >5) in probe labeling in cells treated with compounds (liganded sites))"}, {"measurement": "liganded tyrosine site 396", "setting": "P51784", "result": "HHS0101.Y (tyrosine sites that showed >80% reductions (SR >5) in probe labeling in cells treated with compounds (liganded sites))"}, {"measurement": "liganded tyrosine site 258", "setting": "P23588", "result": "HHS0101.Y (tyrosine sites that showed >80% reductions (SR >5) in probe labeling in cells treated with compounds (liganded sites))"}]}
{"smiles": "O=C(NCC1CC1)c1ccc(S(=O)(=O)n2cncn2)cc1", "note": "[HHS-0201, 4-((1H-1,2,4-triazol-1-yl)sulfonyl)-N-(cyclopropylmethyl)benzamide]", "values": [{"measurement": "liganded tyrosine site 897", "setting": "Q9C0C2", "result": "HHS0201.Y|HHS0301.Y|HHS0401.Y|HHS0701.Y (tyrosine sites that showed >80% reductions (SR >5) in probe labeling in cells treated with compounds (liganded sites))"}, {"measurement": "liganded tyrosine site 1365", "setting": "P42704", "result": "HHS0201.Y (tyrosine sites that showed >80% reductions (SR >5) in probe labeling in cells treated with compounds (liganded sites))"}, {"measurement": "liganded tyrosine site 582", "setting": "Q00341", "result": "HHS0201.Y (tyrosine sites that showed >80% reductions (SR >5) in probe labeling in cells treated with compounds (liganded sites))"}, {"measurement": "liganded tyrosine site 685", "setting": "Q86XP3", "result": "HHS0201.Y (tyrosine sites that showed >80% reductions (SR >5) in probe labeling in cells treated with compounds (liganded sites))"}, {"measurement": "liganded tyrosine site 82", "setting": "O43660", "result": "HHS0201.Y (tyrosine sites that showed >80% reductions (SR >5) in probe labeling in cells treated with compounds (liganded sites))"}, {"measurement": "liganded tyrosine site 215", "setting": "Q9NUJ1", "result": "HHS0201.Y|HHS0701.Y (tyrosine sites that showed >80% reductions (SR >5) in probe labeling in cells treated with compounds (liganded sites))"}]}
{"smiles": "O=C(NC1CCCCC1)c1ccc(S(=O)(=O)n2cncn2)cc1", "note": "[HHS-0301, 4-((1H-1,2,4-triazol-1-yl)sulfonyl)-N-cyclohexylbenzamide]", "values": [{"measurement": "liganded tyrosine site 359", "setting": "Q14694", "result": "HHS0301.Y (tyrosine sites that showed >80% reductions (SR >5) in probe labeling in cells treated with compounds (liganded sites))"}]}
{"smiles": "O=C(NCc1ccccc1)c1ccc(S(=O)(=O)n2cncn2)cc1", "note": "[HHS-0401, 4-((1H-1,2,4-triazol-1-yl)sulfonyl)-N-benzylbenzamide]", "values": [{"measurement": "liganded tyrosine site 887", "setting": "Q9Y2H2", "result": "HHS0401.Y|HHS0701.Y (tyrosine sites that showed >80% reductions (SR >5) in probe labeling in cells treated with compounds (liganded sites))"}]}
{"smiles": "O=C(c1ccc(S(=O)(=O)n2cncn2)cc1)N1CCC(c2ccccc2)CC1", "note": "[HHS-0701, (4-((1H-1,2,4-triazol-1-yl)sulfonyl)phenyl)(4-phenylpiperidin-1-yl)methanone]", "values": [{"measurement": "liganded tyrosine site 82", "setting": "Q9UMX5", "result": "HHS0701.Y (tyrosine sites that showed >80% reductions (SR >5) in probe labeling in cells treated with compounds (liganded sites))"}, {"measurement": "liganded tyrosine site 343", "setting": "P40939", "result": "HHS0701.Y (tyrosine sites that showed >80% reductions (SR >5) in probe labeling in cells treated with compounds (liganded sites))"}, {"measurement": "liganded tyrosine site 74", "setting": "P51665", "result": "HHS0701.Y (tyrosine sites that showed >80% reductions (SR >5) in probe labeling in cells treated with compounds (liganded sites))"}, {"measurement": "liganded tyrosine site 559", "setting": "Q12931", "result": "HHS0701.Y (tyrosine sites that showed >80% reductions (SR >5) in probe labeling in cells treated with compounds (liganded sites))"}]}
